According to patent US20100137449A1, “SUBSTITUTED 1,3-CYCLOPENTADIONE MULTI-TARGET PROTEIN KINASE MODULATORS OF CANCER, ANGIOGENESIS AND THE INFLAMMATORY PATHWAYS ASSOCIATED THEREWITH” (METAPROTEOMICS, LLC, priority 2007, published 2010):

Tests used:
Experiment in all cases: KinaseProfiler Assay
Arg(m) = Arg(m) (Mus musculus, UniProt Q4JIM5)
CaMKIIδ(h) = CaMKIIδ(h) (Homo sapiens, UniProt Q13557)
CaMKIV(h) = target: T1, CaMKIV(h) (Homo sapiens, UniProt Q16566)
T1 sequence (Q16566 1-473): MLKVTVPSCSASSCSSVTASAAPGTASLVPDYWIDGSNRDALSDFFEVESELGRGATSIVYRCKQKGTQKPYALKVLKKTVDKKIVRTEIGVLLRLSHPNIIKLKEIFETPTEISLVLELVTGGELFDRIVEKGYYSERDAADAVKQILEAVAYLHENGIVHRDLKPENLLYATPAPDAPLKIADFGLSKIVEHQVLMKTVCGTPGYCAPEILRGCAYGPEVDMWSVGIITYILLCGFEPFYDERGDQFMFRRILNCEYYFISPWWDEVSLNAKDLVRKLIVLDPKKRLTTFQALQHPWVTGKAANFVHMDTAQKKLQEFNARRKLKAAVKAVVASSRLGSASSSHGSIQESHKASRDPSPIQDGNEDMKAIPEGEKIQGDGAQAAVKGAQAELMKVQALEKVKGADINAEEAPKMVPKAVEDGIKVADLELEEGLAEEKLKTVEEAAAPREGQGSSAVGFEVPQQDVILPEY

CHK2(R145W)(h) = CHK2(R145W)(h) (Homo sapiens, UniProt O96017, R145W)
Fgr(h) = Fgr(h) (Homo sapiens, UniProt P09769)
JAK3(h) = target: T2, JAK3(h) (Homo sapiens, UniProt P52333)
T2 sequence (P52333 1-1124): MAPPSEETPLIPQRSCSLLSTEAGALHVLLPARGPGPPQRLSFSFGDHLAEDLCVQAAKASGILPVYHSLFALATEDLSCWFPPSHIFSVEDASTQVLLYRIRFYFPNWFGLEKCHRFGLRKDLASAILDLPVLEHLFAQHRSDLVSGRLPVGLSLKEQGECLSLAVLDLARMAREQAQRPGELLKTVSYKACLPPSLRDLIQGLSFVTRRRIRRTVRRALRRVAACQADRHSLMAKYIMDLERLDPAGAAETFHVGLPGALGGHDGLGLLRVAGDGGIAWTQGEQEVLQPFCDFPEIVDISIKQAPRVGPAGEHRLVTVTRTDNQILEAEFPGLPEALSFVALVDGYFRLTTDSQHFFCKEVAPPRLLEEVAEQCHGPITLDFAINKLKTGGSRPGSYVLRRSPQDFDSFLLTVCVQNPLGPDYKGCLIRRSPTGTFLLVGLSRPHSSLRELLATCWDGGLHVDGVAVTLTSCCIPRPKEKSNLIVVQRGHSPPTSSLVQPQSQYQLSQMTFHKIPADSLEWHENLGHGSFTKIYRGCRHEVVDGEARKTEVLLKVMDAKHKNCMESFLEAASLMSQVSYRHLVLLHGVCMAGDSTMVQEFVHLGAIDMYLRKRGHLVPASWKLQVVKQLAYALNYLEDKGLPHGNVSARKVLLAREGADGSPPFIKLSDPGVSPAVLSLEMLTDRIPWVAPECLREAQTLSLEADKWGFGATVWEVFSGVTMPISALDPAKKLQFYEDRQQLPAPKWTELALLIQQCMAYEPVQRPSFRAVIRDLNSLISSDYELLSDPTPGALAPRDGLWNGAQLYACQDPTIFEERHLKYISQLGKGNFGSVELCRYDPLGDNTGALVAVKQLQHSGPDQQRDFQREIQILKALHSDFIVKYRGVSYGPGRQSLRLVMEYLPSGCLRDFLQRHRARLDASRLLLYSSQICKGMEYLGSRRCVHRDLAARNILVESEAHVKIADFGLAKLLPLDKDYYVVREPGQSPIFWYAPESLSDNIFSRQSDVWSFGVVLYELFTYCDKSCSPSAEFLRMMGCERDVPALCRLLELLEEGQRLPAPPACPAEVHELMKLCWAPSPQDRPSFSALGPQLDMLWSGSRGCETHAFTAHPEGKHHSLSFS

PrKX(h) = target: T3, PrKX(h) (Homo sapiens, UniProt P51817)
T3 sequence (P51817 1-358): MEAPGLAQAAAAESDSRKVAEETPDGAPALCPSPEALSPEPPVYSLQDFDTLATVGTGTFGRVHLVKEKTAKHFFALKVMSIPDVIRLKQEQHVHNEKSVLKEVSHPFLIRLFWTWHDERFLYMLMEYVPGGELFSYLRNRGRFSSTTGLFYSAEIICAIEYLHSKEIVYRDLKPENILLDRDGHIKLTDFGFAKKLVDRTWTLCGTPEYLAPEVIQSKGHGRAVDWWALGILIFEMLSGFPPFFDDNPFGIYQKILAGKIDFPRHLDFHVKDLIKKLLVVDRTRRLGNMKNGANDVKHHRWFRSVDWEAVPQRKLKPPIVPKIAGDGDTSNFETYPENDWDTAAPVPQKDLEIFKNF

ZIPK(h) = ZIPK(h) (Homo sapiens, UniProt O43293)
Chain of ZIPK(h) (O43293 whole entry): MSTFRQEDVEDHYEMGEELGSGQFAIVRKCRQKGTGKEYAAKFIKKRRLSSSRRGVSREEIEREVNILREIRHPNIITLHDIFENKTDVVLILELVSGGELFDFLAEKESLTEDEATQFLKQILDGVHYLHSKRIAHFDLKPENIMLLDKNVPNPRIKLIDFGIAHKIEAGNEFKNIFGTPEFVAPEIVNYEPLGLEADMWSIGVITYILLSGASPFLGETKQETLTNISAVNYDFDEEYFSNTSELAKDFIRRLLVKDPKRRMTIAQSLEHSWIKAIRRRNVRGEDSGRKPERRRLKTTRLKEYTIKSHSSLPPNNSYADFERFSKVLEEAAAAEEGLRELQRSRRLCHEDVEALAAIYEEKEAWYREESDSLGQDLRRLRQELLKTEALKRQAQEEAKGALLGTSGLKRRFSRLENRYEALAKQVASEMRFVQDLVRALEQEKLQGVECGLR

Chain of CHK2(R145W)(h) (O96017 whole entry R145W): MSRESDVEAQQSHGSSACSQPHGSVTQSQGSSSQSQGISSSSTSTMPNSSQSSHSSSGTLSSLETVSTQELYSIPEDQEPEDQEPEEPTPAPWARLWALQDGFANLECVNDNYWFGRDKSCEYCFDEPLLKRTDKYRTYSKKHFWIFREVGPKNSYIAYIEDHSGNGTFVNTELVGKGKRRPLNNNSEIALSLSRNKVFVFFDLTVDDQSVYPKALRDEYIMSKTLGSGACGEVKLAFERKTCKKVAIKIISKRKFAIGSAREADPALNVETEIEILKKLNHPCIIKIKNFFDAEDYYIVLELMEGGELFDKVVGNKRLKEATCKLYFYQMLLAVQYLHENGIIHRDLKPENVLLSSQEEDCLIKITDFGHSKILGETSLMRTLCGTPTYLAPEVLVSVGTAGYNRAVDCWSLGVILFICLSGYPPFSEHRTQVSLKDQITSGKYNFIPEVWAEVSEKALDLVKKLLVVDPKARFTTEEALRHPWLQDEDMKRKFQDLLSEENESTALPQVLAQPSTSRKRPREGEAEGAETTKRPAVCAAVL
Chain of Arg(m) (Q4JIM5 whole entry): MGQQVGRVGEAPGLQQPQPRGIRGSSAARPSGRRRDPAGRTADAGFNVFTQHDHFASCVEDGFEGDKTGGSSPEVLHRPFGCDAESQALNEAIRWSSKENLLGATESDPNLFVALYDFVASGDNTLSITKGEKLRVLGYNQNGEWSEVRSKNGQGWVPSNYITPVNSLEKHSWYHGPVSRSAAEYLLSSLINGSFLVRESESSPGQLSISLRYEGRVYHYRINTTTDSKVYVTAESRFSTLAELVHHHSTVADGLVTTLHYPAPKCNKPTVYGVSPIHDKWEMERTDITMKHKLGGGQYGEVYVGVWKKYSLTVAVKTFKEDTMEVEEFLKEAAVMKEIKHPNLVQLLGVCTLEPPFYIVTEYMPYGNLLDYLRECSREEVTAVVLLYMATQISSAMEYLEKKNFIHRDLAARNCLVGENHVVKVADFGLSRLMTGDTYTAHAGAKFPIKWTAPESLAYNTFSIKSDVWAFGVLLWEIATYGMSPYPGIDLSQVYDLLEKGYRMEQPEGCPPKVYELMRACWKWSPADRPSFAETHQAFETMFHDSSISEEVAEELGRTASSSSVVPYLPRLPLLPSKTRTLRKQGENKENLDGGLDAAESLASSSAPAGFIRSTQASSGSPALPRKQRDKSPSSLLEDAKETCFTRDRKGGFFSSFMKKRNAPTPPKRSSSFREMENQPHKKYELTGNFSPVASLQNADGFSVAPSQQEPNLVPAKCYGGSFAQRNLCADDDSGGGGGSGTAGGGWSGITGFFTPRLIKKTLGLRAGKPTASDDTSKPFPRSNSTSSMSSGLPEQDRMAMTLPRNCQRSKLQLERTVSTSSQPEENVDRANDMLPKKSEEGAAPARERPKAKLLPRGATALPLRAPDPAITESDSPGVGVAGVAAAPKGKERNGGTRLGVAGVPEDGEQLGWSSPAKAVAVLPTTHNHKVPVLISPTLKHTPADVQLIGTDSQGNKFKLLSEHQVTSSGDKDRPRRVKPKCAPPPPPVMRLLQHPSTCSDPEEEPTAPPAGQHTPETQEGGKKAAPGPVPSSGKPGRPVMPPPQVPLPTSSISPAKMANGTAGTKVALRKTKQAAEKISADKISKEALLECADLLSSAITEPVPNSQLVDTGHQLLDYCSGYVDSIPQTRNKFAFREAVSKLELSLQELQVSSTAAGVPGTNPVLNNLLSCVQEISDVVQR
Chain of CaMKIIδ(h) (Q13557 whole entry): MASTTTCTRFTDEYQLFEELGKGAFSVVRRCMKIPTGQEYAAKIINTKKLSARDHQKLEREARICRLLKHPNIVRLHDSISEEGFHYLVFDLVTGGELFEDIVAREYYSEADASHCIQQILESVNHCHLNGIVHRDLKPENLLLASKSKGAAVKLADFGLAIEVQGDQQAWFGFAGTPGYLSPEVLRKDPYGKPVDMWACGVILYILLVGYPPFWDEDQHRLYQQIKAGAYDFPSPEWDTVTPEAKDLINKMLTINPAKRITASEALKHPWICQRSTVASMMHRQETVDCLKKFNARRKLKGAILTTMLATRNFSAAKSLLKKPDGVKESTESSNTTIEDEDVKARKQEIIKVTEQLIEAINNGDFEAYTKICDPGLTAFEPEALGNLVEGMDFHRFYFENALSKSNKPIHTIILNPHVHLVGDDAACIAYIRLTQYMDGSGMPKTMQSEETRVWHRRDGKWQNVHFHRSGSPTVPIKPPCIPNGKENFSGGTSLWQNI
Chain of Fgr(h) (P09769 whole entry): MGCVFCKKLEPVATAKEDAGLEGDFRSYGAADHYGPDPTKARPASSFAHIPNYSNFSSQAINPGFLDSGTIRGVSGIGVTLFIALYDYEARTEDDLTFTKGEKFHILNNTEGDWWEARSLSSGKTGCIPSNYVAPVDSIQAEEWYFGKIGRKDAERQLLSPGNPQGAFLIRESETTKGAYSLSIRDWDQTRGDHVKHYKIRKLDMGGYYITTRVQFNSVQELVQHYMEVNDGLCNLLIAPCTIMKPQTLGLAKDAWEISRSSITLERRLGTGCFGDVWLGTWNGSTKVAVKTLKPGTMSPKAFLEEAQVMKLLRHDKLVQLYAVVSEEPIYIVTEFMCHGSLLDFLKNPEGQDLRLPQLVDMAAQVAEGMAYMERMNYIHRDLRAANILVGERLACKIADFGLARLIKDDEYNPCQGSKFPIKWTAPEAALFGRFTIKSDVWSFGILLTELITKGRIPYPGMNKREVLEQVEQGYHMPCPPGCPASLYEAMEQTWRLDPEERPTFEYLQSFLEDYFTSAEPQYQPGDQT

## CC(C)CCC(=O)[C@]1(O)C(O)=C(C(=O)C(C)C)C(=O)[C@H]1CCC(C)C [TH2, tetrahydroiso-cohumulone]
Arg(m); 1 μg/ml
  kinase inhibition: 100% of control
Arg(m); 5 μg/ml
  kinase inhibition: 101% of control
Arg(m); 25 μg/ml
  kinase inhibition: 103% of control
Arg(m); 50 μg/ml
  kinase inhibition: 88% of control
Arg(m); 100 μg/ml
  kinase inhibition: 62% of control
CaMKIIδ(h); 1 μg/ml
  kinase inhibition: 99% of control
CaMKIIδ(h); 5 μg/ml
  kinase inhibition: 99% of control
CaMKIIδ(h); 25 μg/ml
  kinase inhibition: 100% of control
CaMKIIδ(h); 50 μg/ml
  kinase inhibition: 91% of control
CaMKIIδ(h); 100 μg/ml
  kinase inhibition: 87% of control
CaMKIV(h); 1 μg/ml
  kinase inhibition: 117% of control
CaMKIV(h); 5 μg/ml
  kinase inhibition: 126% of control
CaMKIV(h); 25 μg/ml
  kinase inhibition: 86% of control
CaMKIV(h); 50 μg/ml
  kinase inhibition: 69% of control
CaMKIV(h); 100 μg/ml
  kinase inhibition: 52% of control
CHK2(R145W)(h); 1 μg/ml
  kinase inhibition: 110% of control
CHK2(R145W)(h); 5 μg/ml
  kinase inhibition: 112% of control
CHK2(R145W)(h); 25 μg/ml
  kinase inhibition: 99% of control
CHK2(R145W)(h); 50 μg/ml
  kinase inhibition: 86% of control
CHK2(R145W)(h); 100 μg/ml
  kinase inhibition: 80% of control
Fgr(h); 1 μg/ml
  kinase inhibition: 95% of control
Fgr(h); 5 μg/ml
  kinase inhibition: 96% of control
Fgr(h); 25 μg/ml
  kinase inhibition: 112% of control
Fgr(h); 50 μg/ml
  kinase inhibition: 106% of control
Fgr(h); 100 μg/ml
  kinase inhibition: 86% of control
JAK3(h); 1 μg/ml
  kinase inhibition: 74% of control
JAK3(h); 5 μg/ml
  kinase inhibition: 67% of control
JAK3(h); 25 μg/ml
  kinase inhibition: 62% of control
JAK3(h); 50 μg/ml
  kinase inhibition: 53% of control
JAK3(h); 100 μg/ml
  kinase inhibition: 35% of control
PrKX(h); 1 μg/ml
  kinase inhibition: 101% of control
PrKX(h); 5 μg/ml
  kinase inhibition: 103% of control
PrKX(h); 25 μg/ml
  kinase inhibition: 98% of control
PrKX(h); 50 μg/ml
  kinase inhibition: 88% of control
PrKX(h); 100 μg/ml
  kinase inhibition: 66% of control
ZIPK(h); 1 μg/ml
  kinase inhibition: 106% of control
ZIPK(h); 5 μg/ml
  kinase inhibition: 96% of control
ZIPK(h); 25 μg/ml
  kinase inhibition: 91% of control
ZIPK(h); 50 μg/ml
  kinase inhibition: 81% of control
ZIPK(h); 100 μg/ml
  kinase inhibition: 76% of control
